In the supplement of paper PMC13207355:
Where a name gives a salt, the structure may show the parent alone.

Key:
Details in all cases: exposure time: 72 h
[1] = tested on: E13 (patient-derived glioblastoma stem cells of classical subtype); experiment: surviving fraction (nuclei count normalised to DMSO); higher = more cells surviving (less toxic)
[2] = tested on: E21 (patient-derived glioblastoma stem cells of mesenchymal subtype); experiment: as above
[3] = tested on: E28 (patient-derived glioblastoma stem cells of classical subtype); experiment: as above
[4] = tested on: E31 (patient-derived glioblastoma stem cells of proneural subtype); experiment: as above
[5] = tested on: E34 (patient-derived glioblastoma stem cells of proneural subtype); experiment: as above
[6] = tested on: E57 (patient-derived glioblastoma stem cells of mesenchymal subtype); experiment: as above
[7] = tested on: FT3469 (normal neural stem cell line); experiment: as above
[8] = tested on: E13; experiment: phenotypic distance (Euclidean, principal components) from DMSO controls (arbitrary units); higher = stronger morphological change
[9] = tested on: E21; experiment: as above
[10] = tested on: E28; experiment: as above
[11] = tested on: E31; experiment: as above
[12] = tested on: E34; experiment: as above
[13] = tested on: E57; experiment: as above
[14] = tested on: FT3469; experiment: as above
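Throughout, for phenotypic distance (Euclidean, principal components) from DMSO controls: cell Painting imaging in 384-well plates, CellProfiler features reduced to at least 20 principal components, Euclidean distance versus same-plate DMSO vehicle wells (0.1% v/v), median over six images per well.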
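Throughout, for surviving fraction (nuclei count normalised to DMSO): nuclei counted by high-content imaging of Hoechst-stained cells in laminin-coated 384-well plates, relative to 0.1% DMSO vehicle wells, with staurosporine as cell-death control.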

N=C(N)NCc1cccc(I)c1 [Iobenguane sulfate]
Details | phenotypic distance | surviving fraction
[1], 4.1 nM | – | 0.873
[1], 12.3 nM | – | 0.869
[1], 37 nM | – | 0.916
[1], 111.1 nM | – | 0.908
[1], 333.3 nM | – | 0.989
[1], 1000 nM | – | 0.922
[1], 3000 nM | – | 1.08
[2], 4.1 nM | – | 0.982
[2], 12.3 nM | – | 0.855
[2], 37 nM | – | 0.854
[2], 111.1 nM | – | 0.921
[2], 333.3 nM | – | 0.972
[2], 1000 nM | – | 1.05
[2], 3000 nM | – | 0.879
[3], 4.1 nM | – | 0.875
[3], 12.3 nM | – | 1.03
[3], 37 nM | – | 0.94
[3], 111.1 nM | – | 1.05
[3], 333.3 nM | – | 1.04
[3], 1000 nM | – | 1.05
[3], 3000 nM | – | 0.936
[4], 4.1 nM | – | 0.961
[4], 12.3 nM | – | 0.997
[4], 37 nM | – | 0.864
[4], 111.1 nM | – | 1.15
[4], 333.3 nM | – | 1.07
[4], 1000 nM | – | 1.13
[4], 3000 nM | – | 0.964
[5], 4.1 nM | – | 0.935
[5], 12.3 nM | – | 1.1
[5], 37 nM | – | 1.02
[5], 111.1 nM | – | 0.975
[5], 333.3 nM | – | 1.08
[5], 1000 nM | – | 1.1
[5], 3000 nM | – | 1.25
[6], 4.1 nM | – | 1.03
[6], 12.3 nM | – | 0.978
[6], 37 nM | – | 0.973
[6], 111.1 nM | – | 1.03
[6], 333.3 nM | – | 0.992
[6], 1000 nM | – | 1.01
[6], 3000 nM | – | 1.04
[7], 4.1 nM | – | 1.08
[7], 12.3 nM | – | 1.12
[7], 37 nM | – | 0.963
[7], 111.1 nM | – | 1.09
[7], 333.3 nM | – | 1.1
[7], 1000 nM | – | 0.904
[7], 3000 nM | – | 1.14
[8], 4.1 nM | 0.573 | –
[8], 12.3 nM | 0.965 | –
[8], 37 nM | 0.696 | –
[8], 111.1 nM | 0.835 | –
[8], 333.3 nM | 0.643 | –
[8], 1000 nM | 0.541 | –
[8], 3000 nM | 0.796 | –
[9], 4.1 nM | 0.441 | –
[9], 12.3 nM | 0.695 | –
[9], 37 nM | 1.24 | –
[9], 111.1 nM | 0.881 | –
[9], 333.3 nM | 0.867 | –
[9], 1000 nM | 0.81 | –
[9], 3000 nM | 0.765 | –
[10], 4.1 nM | 0.591 | –
[10], 12.3 nM | 0.866 | –
[10], 37 nM | 0.64 | –
[10], 111.1 nM | 0.721 | –
[10], 333.3 nM | 0.496 | –
[10], 1000 nM | 0.786 | –
[10], 3000 nM | 0.814 | –
[11], 4.1 nM | 0.547 | –
[11], 12.3 nM | 0.684 | –
[11], 37 nM | 0.567 | –
[11], 111.1 nM | 0.714 | –
[11], 333.3 nM | 0.802 | –
[11], 1000 nM | 0.469 | –
[11], 3000 nM | 0.734 | –
[12], 4.1 nM | 0.386 | –
[12], 12.3 nM | 0.879 | –
[12], 37 nM | 0.823 | –
[12], 111.1 nM | 0.771 | –
[12], 333.3 nM | 1.44 | –
[12], 1000 nM | 0.934 | –
[12], 3000 nM | 0.966 | –
[13], 4.1 nM | 0.755 | –
[13], 12.3 nM | 0.843 | –
[13], 37 nM | 0.712 | –
[13], 111.1 nM | 0.905 | –
[13], 333.3 nM | 0.728 | –
[13], 1000 nM | 0.452 | –
[13], 3000 nM | 0.547 | –
[14], 4.1 nM | 0.354 | –
[14], 12.3 nM | 3.38 | –
[14], 37 nM | 0.885 | –
[14], 111.1 nM | 1.06 | –
[14], 333.3 nM | 1.08 | –
[14], 1000 nM | 0.871 | –
[14], 3000 nM | 0.634 | –
